Results published in publication PMC10051485 (Pharmaceuticals, 2023).
Entries after “also recorded” stand apart in the source; their conditions may differ.

Legend:
[1] = target: T1, Acetylcholinesterase (AChE) (Electrophorus electricus, UniProt O42275); assay: Antiacetylcholinesterase activity (Ellman assay); type: biochemical, Electrophorus electricus (electric eel); settings: for inhibition at 100 µM: read-out: % Inhibition ± RSD of acetylcholinesterase; for % Inhibition ± RSD of acetylcholinesterase: at 100 µM
T1 construct: purchased Sigma type VI-S
Experimental: All the chemicals were purchased from commercial suppliers and were used without any purification. Acetylcholinesterase from Electrophorus electricus (electric eel) type VI-S was produced from Sigma. […] SK-N-SH human neuroblastoma cell line was obtained from the American Type Culture Collection (ATCC HTB-11). The melting point of all compounds was determined on an Electrothermal model 9100 capillary melting point apparatus. Infrared (IR) spectra were run on Fourier Transform Infrared Spectroscopy (FT-IR) (Nicolet 6700, Thermo Scientific, Waltham, MA, USA) using the direct compression technique and record in cm^−1. Proton and carbon nuclear magnetic resonance (^1H NMR, ^13C NMR) spectra were obtained on an Advance 300 MHz NMR Spectroscopy (DPX-3000, Bruker, Switzerland) at 300 MHz and 75.45 MHz, respectively. Chemical shifts (δ) were reported in parts per million (ppm). The NMR solvents used were deuterated dimethylsulfoxide (DMSO-d6, δ = 2.49 ppm) and deuterated chloroform (CDCl3, δ = 7.25 ppm). Mass spectra were determined on a LCQ Fleet Ion Trap Mass Spectrometry using the ESI method. Silica gel 60 (Merck, Art 7734) was used for column chromatography as an adsorbent. The ratio of sample and the adsorbent was about 1:40–60 by weight. The mobile phases developed for thin-layer chromatography (TLC) were generally applied for a column. TLC investigations routinely used for chromatographic separations were carried out on silica gel F254 coated aluminum sheets 20 × 20 cm (Merck, 0.2 mm thickness). The components were detected by visualization under ultraviolet (UV) light at λ of 254 and 365 nm. All solvents were reagent grade and, when necessary, were purified and dried by standard methods. Starting materials and reagents were obtained from commercial suppliers.
Acetylcholinesterase (AChE) inhibitory activity was assayed by modified Ellman’s method using 96-well microplates. […] The absorbance of the mixture in each well was measured at 405 nm by using a microplate reader. After adding 25 µL of 0.22 U/mL AChE in Buffer II into each well, the measurement of absorbance was carried out again at 405 nm and repeated every 45 s for 10 min cycles by a microplate reader (Infinite M200, Tecan, Switzerland). […] The assay was performed in triplicate. […] The percent of enzyme inhibition was calculated as follows: {[(A-B) − (C − D)]/(A − B)} × 100, where A and C were the absorbances of the control treatment and test compounds; and B and D were blank of control and test compounds.

[2] = Antioxidant activity (DPPH assay); settings: for IC50: DPPH 0.4 mM, 30 min in darkness, read-out: IC50 (µM) ± RSD, antioxidative activity
Experimental: Increased generation of free radicals also results in cytotoxicity from Aβ42. This effect might be associated with the Aβ1–42 mediated neurotoxicity. Therefore, it was intriguing to research the roles of the synthesized compounds in assisting oxidative stress, thus preventing cell death. By employing vitamin C as a positive control, the antioxidative properties of synthesized compounds were assessed using the DPPH assay. The activities were presented as the IC50 in Table 4.
Antioxidant activity of tested compounds was determined by the reaction of stable DPPH radical with some modification. Briefly, various concentrations of test compounds were added in 96-well plates and then the methanolic DPPH solution (0.4 mM, 0.1 mL) into each well. The reaction mixture was placed for 30 min in darkness. The degree of purple DPPH decolorization to yellow DPPH indicated the scavenging capacity of the test compounds. The absorbance of the mixture was determined at 517 nm using a microplate reader and L-ascorbic acid served as a positive control. The percent of antioxidant activity was calculated as follow: [1 − (Asample − Ablank)/Acontrol] × 100.

[3] = test system: SK-N-SH neuroblastoma cells; assay: Cytotoxicity on SK-N-SH neuroblastoma cells (MTT assay); settings: MTT, 24 h; for Highest concentration that showed nontoxicity on SK-N-SH cells: tested 0–1000 µM; for % Viability ± RSD at the highest nontoxic concentration: at the concentration of Table 2
Experimental: (§1) SK-N-SH cells were pretreated for 3 h with the respective half-maximal inhibitory doses of the tested compounds (except 9 and 10) before incubating with 25 μM Aβ42 for 24 h to determine the neuroprotective effect against Aβ42-induced toxicity. The relative cell viability (compared with the control) was then assessed.
(§2) Quantitative measurement of cell viability was performed by MTT assay. Briefly, SK-N-SH cells were seeded at a density of 5 × 10^4 cells/100 µL into each well of 96-well plate and incubated at 37 °C in 5% CO2 for 24 h. After incubation, the tested compounds were added at different concentrations, from 0 to 1000 µM. After incubation for 24 h, 50 µL of 3-(4,5-dimethylthiazol-2-yl)-2,5-diphenyltetrazolium bromide (MTT) stock solution (1 mg/mL) was added to each well and incubated at 37 °C for 3 h. Absorbance (A) of each well was measured using a plate reader at a wavelength of 590 nm. Three independent experiments were performed, and results were expressed as mean ± SD. […] Each concentration was prepared in triplicate. […] After incubation for 24 h, 50 µL of MTT stock solution (1 mg/mL) was added to each well and incubated at 37 °C for 3 h. The absorbance (A) of each well was measured using a plate reader at a wavelength of 590 nm. Three independent experiments were performed, and results were expressed as mean ± SD.
(§3) The percent of cell viability was calculated as follow: (A590nm of treated cells/A590nm of untreated cells) × 100.

in vitro = settings: human
Experimental: as §1, §2, §3

Aβ1–42 = target: T2, Aβ1–42 (Homo sapiens, UniProt P05067); assay: Anti-Aβ aggregation activity (Thioflavin T fluorescence assay); type: biochemical; settings: for IC50: ThT assay, Aβ1–42, 24 h, room temperature, pH 7.4, read-out: IC50 (µM) ± RSD, antiaggregation action on Aβ42
T2 construct: Amyloid beta (Aβ1–42) was purchased from the American Peptide Company; purchased American Peptide Company (Sunnyvale, CA, USA)
Experimental: Each compound was diluted in 50 mM Tris-HCl (pH 7.4) to achieve a concentration between 10 nM and 100 µM using 5 concentration points. A total of 1 µL of each sample solution was added to 96-well plates. […] The plate was incubated in the dark at room temperature for 24 h with no agitation. After an incubation period, 200 µL of 5 µM ThT in 50 mM Tris-HCl (pH 7.4) was added to each well. Fluorescence was measured on a SpectraMax GEMINI EM (Molecular Devices, Sunnyvale, CA, USA) dual scanning microplate spectrofluorometer with excitation and emission wavelengths at 446 nm and 500 nm, respectively. The percent of antiaggregation was calculated as follows: [1 − (Fsample − Fblank)/Fcontrol] × 100.

[4] = test system: SK-N-SH neuroblastoma cells; assay: Protection of SK-N-SH neuroblastoma against Aβ42-induced cell death (MTT assay); settings: for viability at 31.25 µM: Homo sapiens, SK-N-SH, read-out: % Viability ± RSD, neuroprotective effect against Aβ induced damage; for % Viability ± RSD, neuroprotective effect against Aβ induced damage: pretreated 3 h at IC50 of antiaggregation (compounds 9 and 10 at 31.25 µM), then 25 µM Aβ42 for 24 h
Experimental: The effects of Aβ42 on the viability of SK-N-SH neuroblastoma cells were investigated using an MTT reduction test. MTT is a tetrazolium salt that can be reduced to formazan by mitochondria dehydrogenase; the reaction is active only in living cells.
The relative cell viability (compared with the control) was then assessed.
as §2, §3

SK-N-SH cells = assay: Morphological cell changes (phase contrast inverted microscope); type: cell-based, human; settings: 25 µM Aβ42, 24 h
Experimental: The effect of Aβ42 in inducing cell death was confirmed using a phase-contrast inverted microscope.
To determine the effect of designed compounds on cell morphology, the observation of cells on phase contrast inverted microscope was performed. […] After incubation, the medium was removed and replaced with various concentrations of the designed compound and incubated for 24 h. After cells were treated with compounds or Aβ1–42, media were removed and treated cells were washed once with phosphate buffer saline (PBS). Then, cells were observed under phase contrast inverted microscope at 400 magnifications.

T1 sequence (O42275 24-633): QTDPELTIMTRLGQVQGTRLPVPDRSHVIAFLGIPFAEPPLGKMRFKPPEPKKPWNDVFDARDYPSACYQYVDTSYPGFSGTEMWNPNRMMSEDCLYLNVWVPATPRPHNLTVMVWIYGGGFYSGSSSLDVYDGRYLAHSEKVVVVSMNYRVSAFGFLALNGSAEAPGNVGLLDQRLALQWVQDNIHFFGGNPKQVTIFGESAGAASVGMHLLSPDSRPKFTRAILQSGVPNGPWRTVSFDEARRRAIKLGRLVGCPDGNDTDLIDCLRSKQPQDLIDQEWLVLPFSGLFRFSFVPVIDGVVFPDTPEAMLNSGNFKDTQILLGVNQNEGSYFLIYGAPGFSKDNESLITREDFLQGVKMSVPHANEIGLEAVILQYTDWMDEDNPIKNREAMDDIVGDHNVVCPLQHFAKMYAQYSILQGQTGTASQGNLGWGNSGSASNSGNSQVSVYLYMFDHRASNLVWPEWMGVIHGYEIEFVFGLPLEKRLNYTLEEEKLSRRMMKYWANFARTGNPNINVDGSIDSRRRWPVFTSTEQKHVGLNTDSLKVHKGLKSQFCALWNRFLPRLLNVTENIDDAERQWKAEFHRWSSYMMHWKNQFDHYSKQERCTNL
T2 sequence (P05067 672-713): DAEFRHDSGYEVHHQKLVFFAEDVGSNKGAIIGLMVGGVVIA

Structure (SMILES)	inhibition at 100 µM [1]	IC50 [2]	Highest concentration that showed nontoxicity on SK-N-SH cells [3]	viability at 24 h (in vitro)	IC50 (Aβ1–42)	viability at 31.25 µM [4]	Fold less potent antioxidant than compound 5 ([2]; compared to compound 5)	Fold more potent against Aβ aggregation than methyl ester 7 (Aβ1–42; compared to compound 7)	% Viability ± RSD at the highest nontoxic concentration [3]	% Inhibition ± RSD of acetylcholinesterase [1]	Fold increase of antioxidant potency versus compound 9 ([2]; p-CH3 (compound 9) converted to p-F (compound 10))	Fold reduction of anti-Aβ aggregation versus compound 9 (Aβ1–42; p-CH3 (compound 9) replaced with p-F (compound 10))	% Viability ± RSD, neuroprotective effect against Aβ induced damage [4]	Morphology of SK-N-SH cells treated with Aβ42 and compound (SK-N-SH cells)
COC(=O)Cc1c(C)[nH]c2ccc(Oc3ccccc3)cc12 [Compound 7, 2-Methyl-3-(methyl ethanoate-2-yl)-5-phenoxy Indole]	11%	145 µM	31.25 µM	93.4 ± 2.15%	14 µM	83.7 ± 2.21%	–	–	–	–	–	–	–	–
Cc1[nH]c2ccc(Oc3ccccc3)cc2c1CC(=O)O [Compound 3, 2-Methyl-3-(carboxymethyl)-5-phenoxy Indole]	29.3%	47.1 µM	31.25 µM	90.4 ± 3.69%	18.8 µM	–	–	–	–	–	–	–	–	–
Cc1[nH]c2ccc(Oc3ccccc3)cc2c1CC(=O)NC#N [Compound 8, 2-Methyl-3-(cyanoethanamide-2-yl)-5-phenoxy Indole]	6.61%	85.5 µM	62.50 µM	93.8 ± 3.66%	20.6 µM	–	3.03 fold	–	–	–	–	–	–	–
Cc1[nH]c2ccc(Oc3ccccc3)cc2c1CC(=O)Nc1ccccc1 [Compound 11, 2-Methyl-3-(phenylethanamide-2-yl)-5-phenoxy Indole]	30%	111 µM	15.63 µM	94.3 ± 3.31%	13.1 µM	–	–	–	–	–	–	–	–	–
CNC(=O)Cc1c(C)[nH]c2ccc(Oc3ccccc3)cc12 [Compound 4, 2-Methyl-3-(methylethanamide-2-yl)-5-phenoxy Indole]	9.73%	176 µM	31.25 µM	93.7 ± 3.23%	3.26 µM	72.3 ± 1.85%	–	4.3 fold	–	–	–	–	–	–
O=C1O[C@H]([C@@H](O)CO)C(O)=C1O [Vitamin C, L-ascorbic acid, reference compound]	–	13.3 µM	–	–	–	–	–	–	–	–	–	–	–	–
C[S+](C)[O-] [DMSO]	–	–	–	–	–	–	–	–	92.08 ± 2.86%	–	–	–	–	–
CCOC(=O)Cc1c(C)[nH]c2ccc(Oc3ccccc3)cc12 [Compound 6, 2-Methyl-3-(ethyl ethanoate-2-yl)-5-phenoxy Indole]	19.9%	190 µM	31.25. µM	89.5 ± 2.11%	19.1 µM	–	–	–	–	–	–	–	–	–
COc1cc(/C=C/C(=O)CC(=O)/C=C/c2ccc(O)c(OC)c2)ccc1O [Curcumin, reference compound]	–	–	15.63 µM	94.4 ± 1.83%	–	–	–	–	–	–	–	–	–	–
Cc1[nH]c2ccc(Oc3ccccc3)cc2c1CC(=O)NCc1ccc(F)cc1 [Compound 10, 2-Methyl-3-(4-fluorobenzylethanamide-2-yl)-5-phenoxy Indole]	–	86 µM	31.25 µM	–	72.7 µM	–	–	–	80.51 ± 3.96%	12.45 ± 4.98%	3.08 fold	1.4 fold	63.05 ± 2.70%	–
Cc1[nH]c2ccc(Oc3ccccc3)cc2c1CC(=O)NS(C)(=O)=O [Compound 5, 2-Methyl-3-(methylsulfonylethanamide-2-yl)-5-phenoxy Indole]	-5.66%	28.2 µM	62.50 µM	93 ± 1.02%	3.18 µM	–	–	–	–	–	–	–	–	healthy cell bodies with neurites; also recorded: healthy cell bodies and neuritis
Cc1ccc(CNC(=O)Cc2c(C)[nH]c3ccc(Oc4ccccc4)cc23)cc1 [Compound 9, 2-Methyl-3-(4-methylbenzylethanamide-2-yl)-5-phenoxy Indole]	–	265 µM	31.25 µM	–	53.7 µM	–	–	–	95.21 ± 3.00%	12.5 ± 4.57%	–	–	80.38 ± 3.54%	–
Cc1ccc(S(=O)(=O)NC(=O)Cc2c(C)[nH]c3ccc(Oc4ccccc4)cc23)cc1 [Compound 12, 2-Methyl-3-(4-methylbenzesulfonylethanamide-2-yl)-5-phenoxy Indole]	–	121 µM	15.63 µM	–	9.48 µM	–	–	–	90.73 ± 4.64%	31.52 ± 4.90%	–	–	71.85 ± 1.82%	–
